Consider two compounds from patent publication US11419843B2, “Small molecule BCL-2 functional converters as cancer therapeutics” (Oregon State University, priority 2016, dated 2022).

Bounds are passed on as bounds.

For data set [1] the following is noted: low dose; cited from earlier work.
For the next data set, the system named is WT and Bcl-2−/− MEFs. Briefly: Viability of WT and Bcl-2-/- MEFs. The format is cell-based, mouse. The following applies: indicated concentrations, 10% FBS. The procedure:
FIG. 9E depicts effect of methotrexate in certain cancer cell types. Left Panel: Bcl-2 levels in WT and Bcl-2−/− MEFs. Right panel: MEF cells were exposed to indicated concentrations of Methotrexate in medium containing 10% FBS and viability was determined by cell titer glo assay.
Cell viability was determined using CellTiter Glo Luminescent Cell Viability Assay (Promega, Madison, Wis.) as per manufacturer instructions. DAPI stain was used to assess apoptosis. Colony forming assays were performed as described previously.

The test system of data set [2] is MDA-MB-231 cells with or without Bcl-2 expression vector. The data set can be described thus: Transwell matrigel invasion assay. Format: cell-based, human. The note with it: 10 μM, 16 h. On the procedure: FIG. 10F is MDA-MB231 cells with or without Bcl-2 expression vector were treated with 10 μM MTX or vehicle in a matrigel invasion chamber for 16 h and the membrane was then fixed, stained and number of cells invaded counted.
Invasion assay was performed using BD transwell invasion assay kit. MDA-MB-231 cells were treated for 16 h at 10 μM concentration and membrane was stained with prolong anti-fade DAPI stain and number of cells invaded were counted under a fluorescent microscope.

A further data set concerns the target Bcl-2 loop domain (Homo sapiens, UniProt P10415). The data set can be described thus: NMR titration of 15N-13C labeled Bcl-2 loop domain (HSQC chemical shift perturbation). The following applies: for Kd: 0.2 mM Bcl-2 loop titrated with 0.2-5.4 mM MTX.
The target of data set [3] is T1, Nur77 interaction with Bcl-2 (Homo sapiens, UniProt P10415).
T1 construct: expressed in transfected cells; host or cells: HEK293T
The data set can be described thus: Co-immunoprecipitation, competition with Nur77 for Bcl-2. The format is binding. The note with it: 10 μM MTX, 16 h, HEK293T cells. On the procedure:
Methotrexate reduced the interaction of Nur-77 with BCl-2 domain upon co-incubation indicating methotrexate interacts with the same region of loop domain as does Nur-77.
For CoIP experiments, HEK293T cells were plated in a 6 well plate and transfected with indicated expression plasmids by lipofectamine. The total amount of DNA was maintained at 2.5 μg. After 12 h of transfection, cells were treated with DMSO or 10 μM MTX for 16 h. The cells were then lysed on ice using RIPA buffer with freshly added protease inhibitor cocktail (Complete, mini, EDTA-free protease inhibitor cocktail, Roche, Inc.). The lysis buffer contained either DMSO or 10 μM MTX. Cell lysates were incubated on ice for 30 min and then spun at 14,000 rpm for 30 min at 4° C. Cleared lysates were incubated with Bcl-2 antibody (sc-509, Santacruz) and incubated at 4° C. for 2-4 h end-over-end mixing. After incubation a volume of sepharose beads (sc-2003, Santacruz) were added to each sample and left end-over-end mixing overnight at 4° C. The beads were then washed four times with RIPA buffer containing either DMSO or 10 μM and then solubilized in laemmli buffer. Proteins were analyzed on 10-12% SDS-PAGE and immunoblotted with mouse polyclonal anti-Bcl-2 (sc-509, Santacruz), mouse polyclonal anti-GFP (33-2600, Thermofisher).

The subject of data set [4] is MDA-MB-468 parental and paclitaxel resistant cells. The data set can be described thus: Clonogenic survival of MDA-MB-468 parental and resistant cells. Format: cell-based, human. The note with it: treated continuously for 14 days. The text has this:
FIG. 29B is the results of clonogenic survival assays in MDA-MB-468 parental and resistant cells treated continuously for 14 days with vehicle, or indicated concentration of paclitaxel. Colony forming ability (%) relative to vehicle treatment. Representative of three independent assays conducted in triplicate.

For data set [5], the system named is MDA-MB-468 parental and derived paclitaxel or doxorubicin resistant cells. The data set can be described thus: Viability of MDA-MB-468 parental and derived resistant cells. Format: cell-based, human. The procedure: Percentage viability relative to vehicle treatment. Representative of three independent assays in triplicate.
Percentage viability relative to vehicle treatment.
Percentage viability relative to vehicle treatment. Representative of three independent assays conducted in triplicate.
Cells of interest were plated at 2000 cells per well in 96-well black tissue culture plate and allowed to adhere to the plate overnight. Viability assays were performed using 10% serum medium unless otherwise stated. Drugs were diluted in supplemented tissue culture medium and added at increasing concentrations, with DMSO as a vehicle control. Cells were then incubated for either 48 hour or 72 hours in presence of the compound, Promega Titer Glo was added to the wells at the assay end point according to manufacturer's protocol. Luminescence was measured using Tropix TR717 Microplate luminometer. Percentage of viable cells is relative to vehicle (100%). As a complementary viability assay, eBioscience Fixable Viability Dye eFluor 660(65-0864) was used to stain dead cells and analyzed using flow cytometry.

Data set [6] concerns H460 parental and resistant cells. The data set can be described thus: Annexin-V apoptosis assay in H460 parental and resistant cells. The note with it: BFC1108 20 μM, 48 hours. The format is cell-based, human. The procedure: FIG. 25E is the results of Annexin-V apoptosis assay in H460 cells treated for 48 hours with vehicle or paclitaxel 10 nM, quantification right panel.
Cells were seeded into 6 well tissue culture plates to give approximately 50% confluence and allowed to attach overnight. The cells were then treated for a period of time indicated in figure legend with the appropriate compound at various concentrations (see figure legends). An Annexin V-conjugate PerCP-eFluor 710 apoptosis detection kit was used as described by the manufacturer's protocol (eBioscience 88-8008). Harvesting of cells included collection of floating and attached cells following trypsinization. Data were acquired using an CytoFLEX S flow cytometer (Beckman Coulter, Brea, Calif.) and 10,000 events on the PC5.5 channel were analyzed using CytExpert software (Beckman Coulter). For Nur77 GFP tagged annexin V analysis, GFP positive population were selected and then Annexin V+population was determined. For each sample, 10,000 GFP+ events were collected. Annexin V positive cell population was considered to be the apoptotic population, and the percent of annexin V positive cell population was used to determine the extent of apoptosis.

Data set [7] has as its system MEF Bcl-2−/− and WT MEF cells. Briefly: Colony forming ability of MEFs. The note with it: 10 μM, 10% FBS, 48 h. The format is cell-based, mouse.
Data set [8] relates to H460 parental and resistant cells. The data set can be described thus: Colony formation (2D clonogenic, 3D soft agar) of H460 parental and resistant cells. The following applies: treated continuously for 14 days. Format: cell-based, human. The text has this:
Colony forming ability (%) relative to vehicle treatment. Representative of three independent conducted assays in triplicate.

Sequence of Bcl-2 loop domain (P10415 29-90 limits assumed): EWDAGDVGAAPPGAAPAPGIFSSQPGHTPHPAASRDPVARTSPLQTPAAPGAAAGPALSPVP
T1 sequence (P10415 whole entry): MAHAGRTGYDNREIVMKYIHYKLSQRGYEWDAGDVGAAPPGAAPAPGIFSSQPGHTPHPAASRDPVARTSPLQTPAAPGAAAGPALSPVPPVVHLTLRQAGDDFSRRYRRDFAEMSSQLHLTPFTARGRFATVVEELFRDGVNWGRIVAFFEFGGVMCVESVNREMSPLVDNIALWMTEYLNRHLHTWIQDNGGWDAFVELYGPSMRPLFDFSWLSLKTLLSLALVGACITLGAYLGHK

For `CN(Cc1cnc2nc(N)nc(N)c2n1)c1ccc(C(=O)N[C@@H](CCC(=O)O)C(=O)O)cc1` [MTX, (2S)-2-[[4-[(2,4 diaminopteridin-6-yl)methylmethylamino]benzoyl]amino] pentanedioc acid], the bioavailability in data set [1] is no more than 70%. Also, the “Bcl-2 dependent induction of apoptosis in MEFs with or without Bcl-2” value in the data set with WT and Bcl-2−/− MEFs is reported as “Bcl-2 dependent induction of apoptosis by MTX was also seen in mouse embryonic fibroblast cells with or without Bcl-2”. In addition, the “Invasive potential of Bcl-2 over-expressing cells vs vector controls” value in data set [2] was “inhibited the invasive potential of Bcl-2 over-expressing cells”. Besides, the “Chemical shift perturbations of Bcl-2 loop domain upon titration” value at Bcl-2 loop domain (15N-1H HSQC) is listed as “residues 55-60”. At Bcl-2 loop domain (Hill model fit), the “Hill coefficient, His55” value was determined as 1.2 and the “Hill coefficient, His58” value amounted to 1.0. At Bcl-2 loop domain (Kd from chemical shift perturbation of His55, Hill model fit), the Kd is 5.1 mM. The Kd at Bcl-2 loop domain (Kd from chemical shift perturbation of His58, Hill model fit) was found to be 11.4 mM. Further, in data set [3], the “Competition with Nur77 for interaction with Bcl-2” value is “competition between MTX and Nur77 in interacting with the Bcl-2 protein could be seen”.
Consider `CCOc1ccccc1NC(=O)c1cc(Cl)ccc1NC(=O)c1ccc(OC)cc1` [BFC1108, 5-chloro-N-(2-ethoxyphenyl)-2-[(4-methoxybenzoyl)amino]-benzamide], for which, in [4], the “Colony forming ability of MDA-MB-468 paclitaxel resistant cells” value is “reduced colony forming ability of the paclitaxel resistant cells”. Besides, the “Viability of MDA-MB-468 doxorubicin resistant cells” value in data set [5] (72 hour treatment) was “reduced viability of doxorubicin resistant cells”. The “Viability of MDA-MB-468 paclitaxel resistant vs parental cells” value in data set [5] (72 hours) is on record as “preferentially killed by BFC1108 in a dose dependent manner”. The “Induction of apoptosis (Annexin V), H460 resistant vs parental” value in data set [6] is reported as “induced apoptosis in the resistant line preferentially”. Further, in data set [7], the “Colony forming ability of MEF Bcl-2−/− cells” value is recorded as “absent” and the “Colony forming ability of WT MEFs” value is reported as “fewer colonies”. For the same compound, in [8], the “Colony formation ability of H460 resistant vs parental line” value is “reduced colony formation ability of resistant line preferentially”.
